These results are taken from publication PMC11011439, “Influence of Molecular Design on the Tumor Targeting and Biodistribution of PSMA-Binding Tracers Labeled with Technetium-99m” (International Journal of Molecular Sciences, 2024).

For one series, the target named is T1, PSMA (Homo sapiens, UniProt Q04609).
T1 construct: expressed in transfected cells; host or cells: PC3-pip cells (from Prof. Martin G. Pomper, Johns Hopkins University)
Nature of the series: Real-time binding kinetics on living PC3-pip cells (LigandTracer Yellow). Particulars: 5 nM tracer, 1:2 interaction model; for Kd: read-out: KD1. The procedure: The binding kinetics of [^99mTc]Tc-labeled BQ0411, BQ0412, and BQ0413 were measured in real time using LigandTracer Yellow Instruments (Ridgeview Instruments AB, Uppsala, Sweden) on PC3-pip cells, as described earlier. The activity binding was recorded at 5 nM on the radiolabeled tracers for 150 min. After measuring the binding kinetics, the medium containing the labeled tracer was replaced with fresh medium, and the dissociation was monitored over 7 h. […]

The nature of series [1]: Biodistribution in NMRI mice. In kind it is in vivo. Particulars: for activity in carcass / activity in intestines with content / uptake in blood / uptake in kidney / uptake in liver / uptake in lung / uptake in salivary glands / uptake in spleen / uptake in stomach: 40 pmol/mouse iv. The procedure:
Four NMRI mice were intravenously injected with 40 pmol of the radiotracer (60 kBq, the mass of the injected compound was adjusted with an unlabeled tracer). The mice were euthanized with a lethal intraperitoneal injection of ketamine/xylazine, followed by exsanguination at 3 and 24 h post-injection (pi). The organs of interest were collected, weighed, and measured for their activity content using a gamma counter. The uptake activity in organs was calculated as the percentage of injected activity per gram (%IA/g) for the blood, salivary glands, lungs, liver, spleen, stomach, and kidneys and as %IA for the remaining carcass and the rest of the intestines with content.

Series [2] in a line: Octanol/water distribution coefficient (LogD). Conditions: n-octanol / Milli-Q water. The class given is physicochemical. As to the method:
The LogD was determined experimentally based on the procedure described earlier. Briefly, the radiolabeled compound of interest was added to a LoBind Eppendorf tube (Eppendorf, Hamburg, Germany) containing Milli-Q water (500 μL) and n-octanol (500 μL), and the mixture was vortexed and centrifuged. Thereafter, three fractions from each phase were collected and the activity was measured using a gamma counter. The LogD was calculated by dividing the average activity measured in octanol by the average activity measured in water.

For series [3], the system named is PSMA-expressing prostate cancer xenografts (PC3-pip). Nature of the series: Biodistribution and tumor targeting in PC3-pip tumor-bearing mice. Particulars: 3 h pi. The class given is in vivo, BALB/c nu/nu mice. The procedure: PSMA-expressing prostate cancer xenografts were implanted in BALB/c nu/nu mice by subcutaneous injection of PC3-pip cell suspension in PBS (10^7 cells/animal in 100 µL). The average tumor weight was 0.3 ± 0.2 g at the time of the experiment. Four mice per data point were used. Mice were intravenously injected with 5 nmol of the radiotracer (60 kBq, the mass of the injected compound was adjusted with an unlabeled tracer). The mice were euthanized 3 h pi, and the samples were treated as described above.

The conditions of series [4]: of the [99mTc]Tc-labeled ligand; cited from earlier work.

T1 sequence (Q04609 whole entry): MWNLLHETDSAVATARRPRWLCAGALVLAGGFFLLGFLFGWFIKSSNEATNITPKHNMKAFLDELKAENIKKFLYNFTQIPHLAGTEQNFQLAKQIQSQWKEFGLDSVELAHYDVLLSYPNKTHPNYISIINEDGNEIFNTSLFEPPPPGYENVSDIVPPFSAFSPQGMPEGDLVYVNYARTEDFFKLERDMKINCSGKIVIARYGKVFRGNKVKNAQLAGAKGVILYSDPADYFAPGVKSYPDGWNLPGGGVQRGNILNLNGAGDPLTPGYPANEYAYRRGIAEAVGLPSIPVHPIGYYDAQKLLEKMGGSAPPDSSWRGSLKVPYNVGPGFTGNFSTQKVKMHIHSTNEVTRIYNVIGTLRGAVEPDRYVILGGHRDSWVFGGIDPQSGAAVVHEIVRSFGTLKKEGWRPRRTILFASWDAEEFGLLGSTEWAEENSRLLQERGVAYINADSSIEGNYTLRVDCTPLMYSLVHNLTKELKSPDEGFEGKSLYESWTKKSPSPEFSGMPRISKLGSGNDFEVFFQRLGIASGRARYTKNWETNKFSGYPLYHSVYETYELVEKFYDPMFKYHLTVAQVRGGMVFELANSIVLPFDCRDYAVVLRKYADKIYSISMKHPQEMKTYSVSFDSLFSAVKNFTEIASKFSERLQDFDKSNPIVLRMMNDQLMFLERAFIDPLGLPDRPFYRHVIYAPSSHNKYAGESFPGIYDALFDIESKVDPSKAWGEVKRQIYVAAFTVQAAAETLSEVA

On to `CC(=O)N[C@@H](CCCCNC(=O)C[N]1C(=O)C[N]2C(=O)C[N]3C(=O)C[S][TcH]132=[O])C(=O)NCCCCCCCC(=O)N[C@@H](Cc1ccc(O)cc1)C(=O)N[C@@H](Cc1ccc2ccccc2c1)C(=O)NCCCC[C@H](NC(=O)N[C@@H](CCC(=O)O)C(=O)O)C(=O)O` [[^99mTc]Tc-BQ0412], for which the Kd at PSMA came out at 0.44 nM.
`CC(=O)NC(CCCCNC(=O)CNC(=O)C[N]1C(=O)C[N]2C(=O)C[N]3C(=O)C[S][TcH]132=[O])C(=O)NCCCCCCCC(=O)NC(Cc1ccc(O)cc1)C(=O)NC(Cc1ccc2ccccc2c1)C(=O)NCCCCC(NC(=O)NC(CCC(=O)O)C(=O)O)C(=O)O` (stereo not drawn) [[^99mTc]Tc-BQ0411]: the Kd at PSMA was determined as 0.604 nM.
With `CC(=O)N[C@@H](CCCCNC(=O)CNC(=O)C(CCC(=O)O)[N]1C(=O)C(CCC(=O)O)[N]2C(=O)C(CCC(=O)O)[N]3C(=O)C[S][99Tc-]312=[O])C(=O)NCCCCCCCC(=O)N[C@@H](Cc1ccc(O)cc1)C(=O)N[C@@H](Cc1ccc2ccccc2c1)C(=O)NCCCC[C@H](NC(=O)N[C@@H](CCC(=O)O)C(=O)O)C(=O)O` (stereo partly drawn) [[^99mTc]Tc-BQ0413], in series [1] (3 h pi), the activity in carcass is given as 9 ± 1 %IA/sample, the “activity in intestines with content” value worked out at 3.8 ± 0.4 %IA/sample, the uptake in blood stood at 0.5 ± 0.1 %IA/g and the uptake in kidney is on record as 242 ± 43 %IA/g. Further, in series [1] (3 h pi), the uptake in liver stood at 0.7 ± 0.1 %IA/g, the uptake in lung was determined as 1.0 ± 0.3 %IA/g, the “uptake in salivary glands” value amounted to 3.0 ± 0.1 %IA/g and the uptake in spleen turned out to be 1.2 ± 0.3 %IA/g. This compound also gave an uptake in stomach in series [1] (3 h pi) of 3.1 ± 0.5 %IA/g. In addition, in series [1] (24 h pi), the activity in carcass was 1.4 ± 0.2 %IA/sample, the “activity in intestines with content” value was 0.5 ± 0.2 %IA/sample, the uptake in blood came out at 0.05 ± 0.01 %IA/g and the uptake in kidney was 56 ± 14 %IA/g. In series [1] (24 h pi), the uptake in liver is 0.21 ± 0.03 %IA/g, the uptake in lung is 0.18 ± 0.03 %IA/g, the “uptake in salivary glands” value turned out to be 0.30 ± 0.01 %IA/g and the uptake in spleen is listed as 0.3 ± 0.2 %IA/g. The uptake in stomach in series [1] (24 h pi) is on record as 1.0 ± 0.5 %IA/g. Further, the “washout of activity from kidneys” value in series [1] (24 h pi compared to 3 h pi) is given as 77%. Further, in series [2], the “logD (octanol–water distribution coefficient)” value was −2.5 ± 0.1. In addition, on PSMA, the ka1 was 33000 M⁻¹ s⁻¹, the ka2 was 2.9e+08 M⁻¹ s⁻¹, the kd1 worked out at 2.9e-06 s⁻¹ and the kd2 was determined as 2.3e-09 s⁻¹. In series [3] (5 nmol/mouse iv), the activity in carcass amounted to 1.7 ± 0.3 %IA/sample, the “activity in intestines with content” value amounted to 1.7 ± 0.2 %IA/sample, the uptake in blood worked out at 0.17 ± 0.04 %IA/g and the uptake in bone was 0.2 ± 0.1 %IA/g. Moreover, in series [3] (5 nmol/mouse iv), the uptake in kidney was found to be 9 ± 2 %IA/g, the uptake in liver is recorded as 0.3 ± 0.1 %IA/g, the uptake in lung is on record as 0.3 ± 0.1 %IA/g and the uptake in muscle was found to be 0.06 ± 0.02 %IA/g. In series [3] (5 nmol/mouse iv), the uptake in pancreas turned out to be 0.13 ± 0.02 %IA/g, the “uptake in salivary glands” value came out at 0.5 ± 0.1 %IA/g, the “uptake in small intestine” value was found to be 0.2 ± 0.1 %IA/g and the uptake in spleen was found to be 0.9 ± 0.5 %IA/g. Moreover, in series [3] (5 nmol/mouse iv), the uptake in stomach was 0.6 ± 0.2 %IA/g and the uptake in tumor is reported as 17 ± 3 %IA/g. Also, in series [3] (5 nmol/mouse), the tumor-to-blood ratio was 94 ± 3, the tumor-to-bone ratio amounted to 114 ± 29, the tumor-to-liver ratio is given as 48 ± 5 and the tumor-to-lung ratio was 52 ± 8. Further, in series [3] (5 nmol/mouse), the tumor-to-muscle ratio is given as 284 ± 19, the tumor-to-pancreas ratio is reported as 137 ± 10, the tumor-to-salivary ratio amounted to 31 ± 3 and the tumor-to-small intestine ratio is reported as 126 ± 57. In series [3] (5 nmol/mouse), the tumor-to-spleen ratio stood at 16 ± 4 and the tumor-to-stomach ratio is recorded as 24 ± 2.
Turning to `CC(=O)N[C@@H](CCCCNC(=O)CNC(=O)CNC(=O)CNC(=O)CNC(=O)CS)C(=O)NCCCCCCCC(=O)N[C@@H](Cc1ccc(O)cc1)C(=O)N[C@@H](Cc1ccc2ccccc2c1)C(=O)NCCCC[C@H](NC(=O)N[C@@H](CCC(=O)O)C(=O)O)C(=O)O` [BQ0411], the overall charge in series [4] was −1.
Turning to `CC(=O)N[C@@H](CCCCNC(=O)CNC(=O)C(CCC(=O)O)NC(=O)C(CCC(=O)O)NC(=O)C(CCC(=O)O)NC(=O)CS)C(=O)NCCCCCCCC(=O)N[C@@H](Cc1ccc(O)cc1)C(=O)N[C@@H](Cc1ccc2ccccc2c1)C(=O)NCCCC[C@H](NC(=O)N[C@@H](CCC(=O)O)C(=O)O)C(=O)O` (stereo partly drawn) [BQ0413], the overall charge in series [4] is −4.
In the case of `CC(=O)N[C@@H](CCCCNC(=O)CNC(=O)C(CCC(=O)O)[N]1C(=O)C(CCC(=O)O)[N]2C(=O)C(CCC(=O)O)[N]3C(=O)C[S][TcH]312=[O])C(=O)NCCCCCCCC(=O)N[C@@H](Cc1ccc(O)cc1)C(=O)N[C@@H](Cc1ccc2ccccc2c1)C(=O)NCCCC[C@H](NC(=O)N[C@@H](CCC(=O)O)C(=O)O)C(=O)O` (stereo partly drawn) [[^99mTc]Tc-BQ0413], the Kd on PSMA was determined as 0.089 nM.
Take `CC(=O)N[C@@H](CCCCNC(=O)CNC(=O)CNC(=O)CNC(=O)CS)C(=O)NCCCCCCCC(=O)N[C@@H](Cc1ccc(O)cc1)C(=O)N[C@@H](Cc1ccc2ccccc2c1)C(=O)NCCCC[C@H](NC(=O)N[C@@H](CCC(=O)O)C(=O)O)C(=O)O` [BQ0412]: the overall charge in series [4] is −1.
